Structures are written as SMILES.

In the test the target is T1, Interleukin-1 receptor-associated kinase 4 (Homo sapiens, UniProt Q9NWZ3).
T1 sequence (Q9NWZ3 whole entry): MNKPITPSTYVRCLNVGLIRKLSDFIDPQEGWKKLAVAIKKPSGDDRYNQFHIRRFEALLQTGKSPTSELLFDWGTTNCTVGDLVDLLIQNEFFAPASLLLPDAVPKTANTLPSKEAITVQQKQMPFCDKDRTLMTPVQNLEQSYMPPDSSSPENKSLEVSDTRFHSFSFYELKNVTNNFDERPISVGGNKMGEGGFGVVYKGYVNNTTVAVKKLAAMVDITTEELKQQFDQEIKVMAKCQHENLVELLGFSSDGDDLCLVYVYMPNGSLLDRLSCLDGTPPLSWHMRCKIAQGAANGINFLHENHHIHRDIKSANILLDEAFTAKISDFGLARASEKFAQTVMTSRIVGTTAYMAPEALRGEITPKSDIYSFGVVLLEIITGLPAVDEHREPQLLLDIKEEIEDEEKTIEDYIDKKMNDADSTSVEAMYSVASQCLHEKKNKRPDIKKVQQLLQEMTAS
The test is described as follows: IMAP technology (Molecular Devices): A 20 ul reaction mixture contains 10 mM TriHCl, pH 7.2, 0.5 nM GST tagged IRAK4 (SignalChem), 100 nM fluorescent peptide substrate (RP7030, Molecular Devices), 100 uM ATP, 1 mM DTT, 1 mM MgCl2, and 0.01% Tween 20. The reaction is initiated by the addition of ATP. After incubation for 30 minutes at 25° C., 60 ul of Progressive IMAP Reagent (Molecular Devices) is added to stop the reaction. Change in RP7030's FP is determined by a FP reader (Analyst HT, LJL BioSystems).
For `N[C@H]1CCCC[C@H]1Nc1cccc2sc(-c3c(N[C@@H]4CCCNC4)nc(N4CCOCC4)[nH]c3=O)nc12` (racemic), the IC50 (in general, the concentration at which inhibition is half-maximal) was 70 nM. Then `Nc1ccc2c(c1)CN(c1nc(N[C@@H]3CCCNC3)c(-c3nc4ccccc4s3)c(=O)[nH]1)CC2`, with 49 nM. Under `Cc1cccc(-c2c(N[C@@H]3C[C@H](CO)[C@@H](O)[C@H]3O)nc(N3CCOCC3)[nH]c2=O)n1` stands 214 nM. Then `CC1(Nc2nc(N3CCOCC3)[nH]c(=O)c2-c2ccc3ccccc3n2)CCCNC1` (stereo unspecified), with 130 nM.

For the compound `CC(C)(C)OC(=O)N1CC2(CCN(c3nc(N[C@@H]4CCCNC4)c(-c4nc5ccccc5s4)c(=O)[nH]3)CC2)C1`, the concentration for half-maximal inhibition (IC50) amounted to 27 nM.

As to `COC(=O)N1CCC(c2nc(N[C@@H]3CCCNC3)c(-c3nc4ccccc4s3)c(=O)[nH]2)CC1`, the IC50 was 270 nM. Under `CN1CCC(c2nc(N[C@@H]3CCCNC3)c(-c3nc4ccccc4s3)c(=O)[nH]2)CC1` stands 690 nM; under `O=c1[nH]c(N2CCc3ccccc3C2)nc(N[C@@H]2CCCNC2)c1-c1nc(-c2ccc(F)cc2)cs1`, 57 nM; under `N[C@H]1CCCC[C@H]1Nc1cccc2sc(-c3c(N[C@@H]4CCCNC4)nc(N4CCOCC4)[nH]c3=O)nc12`, 2 nM.

Turning to `O=c1[nH]c(N2CCc3ccccc3C2)nc(N[C@@H]2C[C@H](CO)[C@@H](O)[C@H]2O)c1-c1nc2ccccc2s1`, the IC50 was determined as 27.5 nM. Under `CC1(Nc2nc(N[C@@H]3C[C@H](CO)[C@@H](O)[C@H]3O)c(-c3nc4ccccc4s3)c(=O)[nH]2)CCC1` stands 1690 nM; under `O=c1[nH]c(N2CCC3(CC2)CNC3)nc(N[C@@H]2CCCNC2)c1-c1nc2ccccc2s1`, 40 nM; under `CC(=O)N1CCC(c2nc(N[C@@H]3CCCNC3)c(-c3nc4ccccc4s3)c(=O)[nH]2)CC1`, 450 nM. Then `O=c1[nH]c(C2CCOCC2)nc(N[C@@H]2CCCNC2)c1-c1nc2ccccc2s1`, with 380 nM; and `CS(=O)(=O)N1CCN(c2nc(N[C@@H]3CCCNC3)c(-c3nc4c(C5CC5)nccc4s3)c(=O)[nH]2)CC1`, with 6.9 nM. Under `Cc1csc(-c2c(N[C@@H]3CCCNC3)nc(N3CCOCC3)[nH]c2=O)n1` stands 554 nM.

These data come from ChEMBL document CHEMBL3886492, “Aminopyrimidinones as interleukin receptor-associated kinase inhibitors” (2015).
